Patent US20060084135A1, “Compositions for manipulating the lifespan and stress response of cells and organisms” (priority 2003, published 2006)

Tests used:
recombinant human SIRT1 = target: T1, recombinant human SIRT1 (Homo sapiens, UniProt Q96EB6); experiment: SIRT1 fluorescent deacetylation assay (p53-382 acetylated peptide substrate); format: biochemical
T1 sequence (Q96EB6 1-747): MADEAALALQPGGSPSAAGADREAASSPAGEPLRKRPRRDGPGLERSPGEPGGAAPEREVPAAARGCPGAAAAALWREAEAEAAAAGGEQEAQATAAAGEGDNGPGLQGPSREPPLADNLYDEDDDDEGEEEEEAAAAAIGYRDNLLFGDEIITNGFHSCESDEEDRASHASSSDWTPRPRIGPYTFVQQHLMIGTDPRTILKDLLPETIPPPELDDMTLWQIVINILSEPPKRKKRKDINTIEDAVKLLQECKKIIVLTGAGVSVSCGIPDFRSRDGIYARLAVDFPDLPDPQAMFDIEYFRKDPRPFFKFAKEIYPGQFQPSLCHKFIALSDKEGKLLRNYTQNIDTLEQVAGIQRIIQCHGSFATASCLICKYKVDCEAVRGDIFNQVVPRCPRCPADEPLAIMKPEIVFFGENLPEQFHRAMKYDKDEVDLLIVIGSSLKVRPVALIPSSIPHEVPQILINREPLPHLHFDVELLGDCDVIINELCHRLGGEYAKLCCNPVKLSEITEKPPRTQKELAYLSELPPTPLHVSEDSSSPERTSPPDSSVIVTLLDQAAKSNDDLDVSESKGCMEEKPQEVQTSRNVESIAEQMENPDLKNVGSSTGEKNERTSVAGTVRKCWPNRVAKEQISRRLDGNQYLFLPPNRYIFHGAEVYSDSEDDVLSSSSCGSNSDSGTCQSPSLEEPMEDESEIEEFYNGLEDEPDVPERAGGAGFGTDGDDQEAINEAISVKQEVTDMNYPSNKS

recombinant GST-Sir2 = recombinant GST-Sir2 (Saccharomyces cerevisiae, UniProt P06700); experiment: Sir2 deacetylation rate assay; format: biochemical, S. cerevisiae; conditions: in vitro dose-response
Description: (§1) Average lifespan was determined for wild type untreated (□), quercetin (◯) and piceatannol (●).
To investigate whether these compounds could stimulate sirtuins in vivo, we utilized S. cerevisiae, an organism in which the upstream regulators and downstream targets of Sir2 are relatively well understood.
His6-tagged recombinant SIRT1 and GST-tagged recombinant Sir2 were prepared as described by (Bitterman et al. J Biol Chem 277, 45099-107. (2002). From 0.1 to 1 μg of SIRT1 and 1.5 μg of Sir2 were used per deacetylation assay (in 50 μl total reaction). SIRT1 assays and certain of those for Sir2 employed the p53-382 acetylated substrate (‘Fluor de Lys-SIRT1′, BIOMOL) rather than FdL.
Themed compound libraries (BIOMOL) were used for primary and secondary screening. […] For water soluble compounds and negative controls, 1% v/v DMSO was added to the assay. […] HeLa cells were grown and the cellular deacetylation assays were performed and read, as above, but in full-volume 96-well microplates (Corning Costar 3595). […] Calculation of net fluorescence increases included subtraction of a blank value, which in the case of Sir2 was obtained by omitting the enzyme from the reaction and in the case of SIRT1 by adding an inhibitor (200 μM suramin or 1 mM nicotinamide) to the reaction prior to the acetylated substrate. […]

S. cerevisiae [1] = experiment: Yeast replicative lifespan; format: cell-based; conditions: 10 μM, wild type
Description: as §1

[2] = system: W303AR cells (rDNA locus RDN1); experiment: Ribosomal DNA recombination frequency; format: cell-based, S. cerevisiae
[3] = system: rDNA silencing (RDN1::URA3); experiment: Ribosomal DNA silencing assay (URA3 reporter); format: cell-based, S. cerevisiae
Description: Yeast lifespans were determined as in FIG. 2. […] Frequencies were determined by loss of the ADE2 marker gene from the rDNA locus (RDN1). […] Pre-treated cells (RDN1::URA3) were harvested and spotted as 10-fold serial dilutions on either SC or SC with 5-fluororotic acid (5-FOA). In this assay, increased rDNA silencing results in increased survival on 5-FOA medium.
Ribosomal DNA silencing assays using the URA3 reporters were performed as previously described by Bitterman et al. (J Biol Chem 277, 45099-107 (2002)). Ribosomal DNA recombination frequencies were determined by plating W303AR cells (Sinclair, D. A. and Guarente, L. Cell 91, 1033-42 (1997)) on YPD medium with low adenine/histidine and counting the fraction of half-red sectored colonies using Bio-Rad Quantity One software as described by Anderson et al. (J Biol Chem 277, 18881-90. (2002)). At least 6000 cells were analyzed per experiment and all experiments were performed in triplicate. All strains were pre-grown for 15 hours with the relevant compound prior to plating.

S. cerevisiae [4] = experiment: Yeast chronological lifespan; format: cell-based; conditions: 10 μM or 100 μM
[5] = system: lysine 382 of p53 in U2OS osteosarcoma cells; experiment: p53 Ac-K382 Western blot after UV radiation in U2OS cells; format: cell-based, human
[6] = system: lysine 382 of p53 in HEK 293 cells; experiment: p53 Ac-K382 Western blot in HEK 293 cells expressing dominant negative SIRT1-H363Y; format: cell-based, human; conditions: low concentrations of resveratrol
C. elegans (strain N2) = experiment: C. elegans lifespan; format: in vivo; conditions: 100 μM, 50 worms strain N2 (control 5 alive)
Description: Thus, the presence of resveratrol in the growth media of C. elegans extends their lifespan.
The effect of some of these compounds on lifespan was determined in yeast, C. elegans and D. melanogaster, as described above.

[7] = Stability in solution (decay of SIRT1 fold-stimulation of aged stock); format: physicochemical; conditions: ethanol stock solution; ethanol stock 2.5 mM, room temperature, glass vials, nitrogen; assayed at 50 μM; read-out: Stability in Solution t1/2 (converted)
Text: The fold-stimulation (ratio to control) obtained with a compound diluted from an aged stock solution was compared to an identical dilution from a stock solution freshly prepared from the solid compound. “t1/2” is defined as the time required for the SIRT1 fold-stimulation of the compound from the aged solution to decay to one-half of that obtained from a freshly prepared solution. […] Stocks were aged by storage at room […] temperature, in glass vials, under a nitrogen atmosphere.

[8] = 25 μM NAD+, 25 μM p53-382 acetylated peptide

recombinant GST-Sir2, sequence (P06700 whole entry): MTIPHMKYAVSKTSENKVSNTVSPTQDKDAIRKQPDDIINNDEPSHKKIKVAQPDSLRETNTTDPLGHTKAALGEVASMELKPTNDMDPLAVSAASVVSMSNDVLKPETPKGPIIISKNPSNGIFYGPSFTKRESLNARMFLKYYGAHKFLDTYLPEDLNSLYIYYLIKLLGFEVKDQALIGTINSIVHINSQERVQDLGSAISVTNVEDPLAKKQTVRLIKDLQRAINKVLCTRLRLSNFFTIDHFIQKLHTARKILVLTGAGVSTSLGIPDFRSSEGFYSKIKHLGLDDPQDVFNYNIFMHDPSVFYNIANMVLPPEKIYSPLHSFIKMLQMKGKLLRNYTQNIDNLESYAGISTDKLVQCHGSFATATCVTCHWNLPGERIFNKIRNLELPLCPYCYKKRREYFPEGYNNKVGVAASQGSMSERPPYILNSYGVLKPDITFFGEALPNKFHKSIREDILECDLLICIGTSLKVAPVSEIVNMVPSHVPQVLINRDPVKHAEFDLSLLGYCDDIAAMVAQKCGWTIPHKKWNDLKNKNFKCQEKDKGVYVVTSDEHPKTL

SMILES: Oc1ccc(/C=C/c2cc(O)cc(O)c2)cc1 [Resveratrol, 3,5,4′-Trihydroxy-trans-stilbene]
- Apparent Km for NAD+ and acetylated substrate (recombinant human SIRT1; 5 μM resveratrol in the presence of 50 μM nicotinamide): raised
- Concentration at which the activating effect doubled the rate (recombinant human SIRT1; [8]): ~11 µM
- Concentration at which the activating effect was essentially saturated (recombinant human SIRT1; [8]): ~100 µM
- Effect on the two Vmax determinations (recombinant human SIRT1; 100 μM resveratrol): no significant effect
- Lowering of Km for NAD+ (recombinant human SIRT1; 100 μM resveratrol, 1 mM p53-382 acetylated peptide): over 5 fold
- Decrease of acetylated peptide Km (recombinant human SIRT1; 100 μM resveratrol, 3 mM NAD+): 35 fold
- Km for both NAD+ and acetylated peptide (recombinant human SIRT1; 20 and 100 μM resveratrol in the presence of 50 μM nicotinamide): lowers
- Vmax, NAD+ varied (recombinant human SIRT1; +100 μM resveratrol, 1 mM p53-382 acetylated peptide (control 1863)): 1749 AFU/min.
- Vmax, p53-382 acetylated peptide varied (recombinant human SIRT1; +100 μM resveratrol, 3 mM NAD+ (control 1107)): 926 AFU/min.
- Concentrations at which inhibition of Sir2 was seen (recombinant GST-Sir2): > 100 µM
- Optimum concentration of activator for Sir2 stimulation (recombinant GST-Sir2): 2 to 5 µM
- Effect on maximum lifespan (S. cerevisiae [1]): significantly increased
- Increase of average lifespan (S. cerevisiae [1]): 70%
- rDNA recombination in a sir2 strain ([2]; sir2 strain): does not suppress
- rDNA recombination in the presence of nicotinamide ([2]; with the Sir2 inhibitor nicotinamide): decreased
- Effect on rDNA silencing [3]: only minor effects
- Effect on chronological lifespan (S. cerevisiae [4]): failed to extend
- Level of Ac-K382 of p53 compared to untreated cells ([5]; 0.5 μM resveratrol, 4 hours pre-treatment, UV radiation): marked decrease
- Level of Ac-K382 of p53 ([5]; higher concentrations of resveratrol (>50 μM)): reversed
- Ability to promote deacetylation of p53 in cells expressing dominant-negative SIRT1 (H363Y) [6]: diminished
- Worms alive on day 17 (C. elegans (strain N2)): 17 worms
- half-life at 50 µM [7]: 59 h
